Results on 3 compounds are retold here after patent US20240335569A1, “FIBROBLAST ACTIVATION PROTEIN INHIBITORS AND USE THEREOF” (3 B PHARMACEUTICALS GMBH, priority 2021, published 2024).

Data set [1] addresses T1, Human recombinant FAP (Homo sapiens (Human), UniProt Q12884). Description: Surface plasmon resonance assay (Biacore T200, SCK). The class given is binding. The following applies: for HL [min] (Biacore): SPR dissociation half-life. A digest of the protocol:
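Anti-FAP antibody amine-coupled to CM5 chip (7000 RU), human recombinant FAP captured at 20 μg/mL; compounds run in single-cycle kinetics at 25° C in HBST with 0.1% DMSO, top concentration 500 nM. Reference-cell and buffer-run drift subtraction; kon, koff, KD, t1/2 from 1:1 Langmuir fit, reported as pKD.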
Background: SPR reads the build-up and loss of mass on a sensor chip optically.
Target sequence in this assay (Q12884 whole entry): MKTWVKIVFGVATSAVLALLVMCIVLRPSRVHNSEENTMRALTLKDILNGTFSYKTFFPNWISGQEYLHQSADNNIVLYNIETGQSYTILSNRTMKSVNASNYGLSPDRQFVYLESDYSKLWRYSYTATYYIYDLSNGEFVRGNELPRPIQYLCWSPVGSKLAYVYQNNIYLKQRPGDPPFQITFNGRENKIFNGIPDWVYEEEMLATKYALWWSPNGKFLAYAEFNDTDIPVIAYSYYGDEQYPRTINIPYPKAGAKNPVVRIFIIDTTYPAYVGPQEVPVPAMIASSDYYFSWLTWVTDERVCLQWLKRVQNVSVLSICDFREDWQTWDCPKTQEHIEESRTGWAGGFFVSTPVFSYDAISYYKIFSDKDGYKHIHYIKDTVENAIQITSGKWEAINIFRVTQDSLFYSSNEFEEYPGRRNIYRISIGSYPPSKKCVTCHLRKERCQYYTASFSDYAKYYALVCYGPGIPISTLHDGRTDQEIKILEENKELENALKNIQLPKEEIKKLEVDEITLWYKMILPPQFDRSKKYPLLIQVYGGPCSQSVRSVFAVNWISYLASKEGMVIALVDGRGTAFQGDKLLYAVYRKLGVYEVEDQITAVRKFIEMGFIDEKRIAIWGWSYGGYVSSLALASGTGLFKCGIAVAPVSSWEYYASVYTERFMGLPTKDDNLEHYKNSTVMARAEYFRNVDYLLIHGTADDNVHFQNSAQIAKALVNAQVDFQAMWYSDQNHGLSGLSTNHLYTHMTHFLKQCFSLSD

For data set [2], the system named is HT-29 cells. Kind of data set: Stability in the presence of tumor cells (HT-29), FAP IC50 of supernatants. The conditions noted are these: for pIC50 (incubation in cell medium w/o HT-29) / pIC50 (incubation in the presence of HT-29 cells) / IC50: 10 μM compound, supernatant tested on recombinant human FAP. In kind it is in vitro ADME, human.
Description: The stability of exemplary compounds was further assessed in the presence of a variety of human cell lines from different tissue origins. […] Compounds were diluted in DMEM without phenol red (Biochrom, #F0475) including 2 mM L-glutamine. 400 μL of a 10 μM solution of the test compound was incubated for 24 hours at 37° C. and 5% CO2 in the presence of cells as well as in control wells (without cells) of the same 24-well plate. IC50/pIC50 determination of the supernatants was performed as described above.
In data set [3] the test system is 786-O. Kind of data set: Stability in the presence of human cell lines (786-O). The class given is in vitro ADME. The following applies: Kidney, 24 hours. On the procedure: (§1) Residual activity was calculated as follows: […]
Data set [4] deals with A549. Kind of data set: Stability in the presence of human cell lines (A549). In kind it is in vitro ADME. The conditions noted are these: A549, Lung; 24 hours. The procedure:
as §1

Data set [5] relates to AsPC-1. Description: Stability in the presence of human cell lines (AsPC-1). In kind it is in vitro ADME. The following applies: AsPC-1, Pancreas; 24 hours. On the procedure:
as §1

Data set [6] relates to C4-2. Description: Stability in the presence of human cell lines (C4-2). The following applies: C4-2, Prostate; 24 hours. The class given is in vitro ADME. The procedure: as §1
Data set [7] concerns HEC-265. Description: Stability in the presence of human cell lines (HEC-265). In kind it is in vitro ADME. The conditions noted are these: HEC-265, Endometrium; 24 hours. The procedure:
as §1

Data set [8] has as its system HT-1376. Kind of data set: Stability in the presence of human cell lines (HT-1376). The class given is in vitro ADME. The following applies: HT-1376, Bladder; 24 hours. The procedure: as §1
For data set [9], the system named is K-562. Description: Stability in the presence of human cell lines (K-562). The class given is in vitro ADME. The conditions noted are these: K-562, Blood; 24 hours. On the procedure: as §1
The subject of data set [10] is MDA-MB-436. Description: Stability in the presence of human cell lines (MDA-MB-436). In kind it is in vitro ADME. The conditions noted are these: MDA-MB-436, Breast; 24 hours. On the procedure: as §1
The subject of data set [11] is SCOV-3. The conditions noted are these: SCOV-3, Ovarian; 24 hours. On the procedure: Cells were cultured in McCoys's 5A modified medium (Biochrom, #F1015) including 10% fetal bovine serum (FBS), 2 mM L-glutamine, 100 U/ml penicillin and 100 μg/mL streptomycin (growth medium). […] 1 mL of the cell suspension were seeded in 24-well plates and incubated overnight at 37° C. and 5% CO2. The next day, cells were washed twice and growth medium was exchanged against DMEM without phenol red (Biochrom, #F0475) including 2 mM L-glutamine. Test compound was diluted in DMEM without phenol red (Biochrom, #F0475) including 2 mM L-glutamine. 400 μL of a 10 μM solution of the test compound was incubated for 24 hours at 37° C. and 5% CO2 in the presence of cells as well as in control wells (without cells) of the same 24-well plate.
25 μL of a 30 μM substrate solution, diluted in assay buffer, was added. All solutions were equilibrated at 37° C. prior to use. […] RFU/sec was calculated by SoftMax Pro software and plotted against test compound concentration. Four parameter logistic (4PL) curve fitting and IC50/pIC50 calculations were performed using GraphPad Prism 9.1 software. Residual activity was calculated as follows: […]
The stability of exemplary compounds was further assessed in the presence of a variety of human cell lines from different tissue origins. […] Residual activity was calculated as follows: […]

The subject of data set [12] is U2-OS. Kind of data set: Stability in the presence of human cell lines (U2-OS). The class given is in vitro ADME. The conditions noted are these: Sarcoma (Bone), 24 hours. The procedure:
as §1

Data set [13] relates to U87MG. Description: Stability in the presence of human cell lines (U87MG). The conditions noted are these: Brain, 24 hours. The class given is in vitro ADME. The procedure:
as §1

The test system of data set [14] is WI-38. Kind of data set: Stability in the presence of human cell lines (WI-38). The class given is in vitro ADME. The following applies: WI-38, Fibroblast (Lung); 24 hours. On the procedure: as §1
The subject of data set [15] is WM-266-4. Description: Stability in the presence of human cell lines (WM-266-4). In kind it is in vitro ADME. The following applies: WM-266-4, Skin; 24 hours. The procedure: as §1
The target in data set [16] is HEK-FAP cells (HEK293 cells engineered to express the human FAP) (Homo sapiens (Human), UniProt Q12884). Kind of data set: LigandTracer assay with 111In-labeled compounds. The conditions noted are these: 111In-labeled compound. The class given is binding. The procedure: HEK293 cells (human embryonic kidney cells) were engineered to express the human FAP. […] Cell concentrations were adjusted to 3×10^5 mL^−1, and 3.000 μL of the suspension was dispensed into a poly-lysine-coated, clear cell dish (10 cm). Approximately 24 hours after re-seeding, the medium was replaced by assay medium (Ham's medium with 20 mM HEPES) containing 1% FCS. The dish was placed in the LigandTracer® device and a baseline measurement was obtained using the LigandTracer® Control software (version 2.4). […] To determine the dissociation rate (kd) the cells were washed and subsequently incubated with fresh assay medium for several hours.

For data set [17], the target named is FAP-expressing human WI-38 fibroblasts (Homo sapiens (Human), UniProt Q12884). Description: FACS binding assay (competitive, Cy5-labeled 3BP-2935). The following applies: FAP-expressing WI-38 fibroblasts. A digest of the protocol: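 Cells diluted to 100.000 cells per ml in FACS buffer, washed twice and analysed by flow cytometry. Median Cy5 fluorescence was plotted against test compound concentration, and pIC50 was derived by four-parameter logistic fit.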
Sequence of FAP-expressing human WI-38 fibroblasts (Q12884 whole entry): as above
Background: In flow cytometry, cells or beads pass a laser one at a time.

In data set [18] the target is T1, Human recombinant FAP. Kind of data set: FAP protease activity assay (human), FRET-based. In kind it is biochemical. The following applies: recombinant human FAP, FRET protease activity; read-out: pIC50 (Activity) (converted). On the procedure:
In order to determine the inhibitory activity a FRET-based FAP protease activity assay was established.
Four parameter logistic (4PL) curve fitting and pIC50 calculations were performed using ActivityBase software (IDBS).
Target sequence in this assay (Q12884 26-760): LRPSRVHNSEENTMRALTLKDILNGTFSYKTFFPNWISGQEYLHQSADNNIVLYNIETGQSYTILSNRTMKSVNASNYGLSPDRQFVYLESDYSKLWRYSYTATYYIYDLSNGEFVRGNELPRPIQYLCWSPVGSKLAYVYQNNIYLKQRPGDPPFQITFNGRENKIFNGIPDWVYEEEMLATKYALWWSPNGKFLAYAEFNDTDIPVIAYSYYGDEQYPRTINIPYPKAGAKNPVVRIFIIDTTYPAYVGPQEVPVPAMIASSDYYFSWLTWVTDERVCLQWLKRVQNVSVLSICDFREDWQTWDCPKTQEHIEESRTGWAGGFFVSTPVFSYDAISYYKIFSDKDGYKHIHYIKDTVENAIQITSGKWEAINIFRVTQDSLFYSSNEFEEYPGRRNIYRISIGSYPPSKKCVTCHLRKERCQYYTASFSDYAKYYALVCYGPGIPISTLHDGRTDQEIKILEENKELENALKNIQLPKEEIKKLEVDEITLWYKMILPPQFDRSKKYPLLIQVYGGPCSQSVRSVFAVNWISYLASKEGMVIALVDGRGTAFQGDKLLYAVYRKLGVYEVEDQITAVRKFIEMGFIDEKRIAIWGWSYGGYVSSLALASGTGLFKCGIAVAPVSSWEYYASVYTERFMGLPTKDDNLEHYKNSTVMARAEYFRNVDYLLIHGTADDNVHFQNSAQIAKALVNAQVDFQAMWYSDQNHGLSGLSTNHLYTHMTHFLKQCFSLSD

The mark [19] stands for this setting: 24 hours at 37° C. in control wells without cells.
Setting [20] is: 24 hours at 37° C. with HT-29 cells.

Where two headings read alike, the source gives them in different places.

As for `N#C[C@@H]1CC(F)(F)CN1C(=O)CNC(=O)c1ccnc2ccc(OCCCN3CCN(C(=O)CN4CCN(CC(=O)O)CCN(CC(=O)O)CCN(CC(=O)O)CC4)CC3)cc12` [Compound 3BP-2929, reference compound], the “HL [min] (Biacore)” value in data set [1] was 85 min. Moreover, the “pIC50 (incubation in cell medium w/o HT-29)” value in data set [2] (setting [19]) came to 8.7. The “pIC50 (incubation in the presence of HT-29 cells)” value in data set [2] (setting [20]) came out at 7.9. Further, the “Residual Stability (%)” value in data set [2] (HT-29, Intestine, 24 hours) amounted to 14%; in data set [3], 85%; in data set [4] it was 20%; in [5], 35%; in data set [6], 19%; in data set [7], 65%. For the same compound, the “Residual Stability (%)” value was determined as 10% in data set [8]; 70% in data set [9]; 17% in [10]; 4% in data set [11]; 30% in data set [12]; 45% in data set [13]. Besides, the entries for the “Residual Stability (%)” value in data set [14] and in data set [15] were 26% and 70%, respectively. The “stability in the presence of HT-29 cells (in words)” value in [2] (HT-29 cells) is “unstable”. Also, the “Residual activity after incubation with HT-29 cells for 24 hours (%)” value (“Residual activity after incubation … (%)” below) in data set [2] (HT-29 cells, 24 hours) amounted to 16%. Also, the “HL (half-life)” value in data set [16] was determined as 4.6 ± 2.37 h.
For the compound `O=C(O)CN1CCN(CC(=O)O)CCN(CC(=O)N2CCN(CCCOc3ccc4nccc(C(=O)NCC(=O)N5CCC[C@H]5C(=O)c5nc6ccccc6o5)c4c3)CC2)CCN(CC(=O)O)CC1` [Compound 3BP-4808], the “pKD (Biacore)” value in data set [1] (SPR) is given as more than 10.5. Moreover, the “HL [min] (Biacore)” value in data set [1] is given as more than 150 min. For the same compound, the “pIC50 (incubation in cell medium w/o HT-29)” value in [2] (setting [19]) was determined as 8.6. Besides, in data set [2] (setting [20]), the “pIC50 (incubation in the presence of HT-29 cells)” value was 8.6. In addition, in [2] (HT-29 cells, 24 hours), the “Residual activity after incubation … (%)” value is recorded as more than 95%. The “HL (half-life)” value in data set [16] came out at 0.333 ± 0.083 h.
For the compound `O=C(O)CN1CCN(CC(=O)O)CCN(CC(=O)NCCCS(=O)(=O)c2ccc(-c3ccc4nccc(C(=O)NCC(=O)N5CCC[C@H]5C(=O)c5nc6ccccc6o5)c4c3)cc2)CCN(CC(=O)O)CC1` [Compound 3BP-3581, (S)-2,2′,2″-(10-(2-(3-(4-(4-(2-(2-(benzo[d]oxazole-2-carbonyl)pyrrolidin-1-yl)-2-oxoethylcarbamoyl)quinolin-6-yl)phenylsulfonyl)propylamino)-2-oxoethyl)-1,4,7,10-tetraazacyclododecane-1,4,7-triyl)triacetic Acid], the IC50 in data set [17] was 1.58 nM; in data set [18], 1.26 nM; in [2] (24 hours at 37° C. with HT-29 cells, read-out: pIC50 (incubation in the presence of HT-29 cells) (converted)), 2 nM; in [2] (HT-29, 24 hours at 37° C. in control wells without cells, read-out: pIC50 (incubation in cell medium w/o HT-29) (converted)), 2 nM. In data set [1], the “HL [min] (Biacore)” value was 120 min. Moreover, the Kd in data set [1] (SPR, read-out: pKD (Biacore) (converted)) is less than 0.0316 nM; in [16] it was 0.0794 nM. Moreover, the “Residual activity after incubation … (%)” value in data set [2] (HT-29 cells, 24 hours) was more than 95%. Moreover, in data set [16], the “HL (half-life)” value stood at 5.75 ± 3.63 h.
